For assay [1], the target named is Kappa-type opioid receptor (Cavia porcellus) (UniProt P41144). In words: Displacement of [3H]CI-977 from kappa opioid receptor in guinea pig brain membranes after 2 hrs by scintillation counting method. The settings on record: Membrane, concentration not given here. The assay is classed as cell membranes. For orientation: In a radioligand displacement assay an active substance lowers the binding of a labelled ligand.

Assay [2] concerns the target T1, Mu-type opioid receptor (Rattus norvegicus, UniProt P33535). The assay can be described thus: Displacement of [3H]-diprenorphine from rat mu-opioid receptor in expressed in rat C6 cell membranes after 1 hr.
The target in assay [3] is T2, Kappa-type opioid receptor (Homo sapiens, UniProt P41145). The assay can be described thus: Displacement of [3H]-diprenorphine from human kappa opioid receptor expressed in CHO cells after 1 hr. The assay is classed as cell-based.
The nature of assay [4]: Selectivity ratio of Ki for rat mu-opioid receptor in expressed in rat C6 cell membranes to Ki for human kappa opioid receptor expressed in CHO cell membranes. The assay is classed as cell-based.
Assay [5] addresses T2, Kappa-type opioid receptor. In words: Antagonist activity at human kappa opioid receptor expressed in CHO cells assessed as stimulation of [35S]GTPgammaS. The assay is classed as functional, cell-based.
The target of assay [6] is Mu-type opioid receptor (Homo sapiens, UniProt P35372). In words: Antagonist activity at human mu opioid receptor expressed in CHO cells assessed as stimulation of [35S]GTPgammaS. The assay is classed as functional, cell-based.
The target in assay [7] is Delta-type opioid receptor (Homo sapiens, UniProt P41143). In words: Antagonist activity at human delta opioid receptor expressed in CHO cells assessed as stimulation of [35S]GTPgammaS. The assay is classed as functional, cell-based. (In general: GTPγS resists hydrolysis and so accumulates on activated G proteins.)
Assay [8] concerns the target Kappa-type opioid receptor (Cavia porcellus, UniProt P41144). In words: Displacement of [3H]U69,593 from kappa opioid receptor in guinea pig brain membranes after 2 hrs. The assay is classed as cell membranes, Membrane.
The nature of assay [9]: Selectivity ratio of Ki for mu-opioid receptor in rat brain membranes to Ki for kappa opioid receptor in guinea pig brain membranes. The assay is classed as cell membranes.
A short description of assay [10]: Selectivity ratio of Ki for delta-opioid receptor in rat brain membranes to Ki for kappa opioid receptor in guinea pig brain membranes. The assay is classed as cell membranes.
Assay [11] deals with T1, Mu-type opioid receptor. In words: Displacement of [3H]DAMGO from mu-opioid receptor in rat brain membranes after 2 hrs. The assay is classed as cell membranes, Membrane.
In assay [12] the target is Delta-type opioid receptor (Rattus norvegicus, UniProt P33533). In words: Displacement of [3H]DADLE from delta-opioid receptor in rat brain membranes after 2 hrs. The assay is classed as cell membranes, Membrane.
Assay [13] concerns the target G_PROTEIN_RECEP_F1_2 domain-containing protein (Cavia porcellus, UniProt A0A286XTF2). The assay can be described thus: Displacement of [3H]DPDPE from delta-opioid receptor in guinea pig brain membranes after 30 mins by scintillation counting method. The assay is classed as cell membranes, Membrane.
The species entered for another assay is Oryctolagus cuniculus. The assay can be described thus: Antagonist activity at KOR in Japanese white rabbit vas deferens assessed as inhibition of asimadoline-induced suppression of electric field stimulated twitch response after 30 mins.
In assay [14] the target is T2, Kappa-type opioid receptor. In words: Antagonist activity at kappa opioid receptor (unknown origin). The assay is classed as functional.
For a further assay, the system named is Rattus norvegicus. In words: […] activity in po dosed rat assessed as reversal of U-69593-induced pain response. The assay is classed as functional.
The species entered for assay [15] is Homo sapiens. The assay can be described thus: Selectivity ratio of Ki for Mu opioid receptor (unknown origin) to Ki for kappa opioid receptor (unknown origin).
Assay [16] is filed under the species Homo sapiens. The assay can be described thus: Selectivity ratio of Ki for delta opioid receptor (unknown origin) to Ki for kappa opioid receptor (unknown origin).

The record followed here is ChEMBL document CHEMBL4251556, “Selective kappa opioid antagonists for treatment of addiction, are we there yet?” (Eur J Med Chem, 2017).

Residues, ends and D or L forms follow the SMILES beside them. A value given as a limit tells only on which side of the number the result lay.

As usually defined, the inhibition is how much of the control response was suppressed. Low values mean a response near the control, high ones a response far below the control. The Ki is the equilibrium dissociation constant of an inhibitor or competing ligand from its target. A word on the IC50: it is the concentration at which inhibition is half-maximal. Low values mean greater potency, high ones weaker potency.

T2 sequence (P41145 whole entry): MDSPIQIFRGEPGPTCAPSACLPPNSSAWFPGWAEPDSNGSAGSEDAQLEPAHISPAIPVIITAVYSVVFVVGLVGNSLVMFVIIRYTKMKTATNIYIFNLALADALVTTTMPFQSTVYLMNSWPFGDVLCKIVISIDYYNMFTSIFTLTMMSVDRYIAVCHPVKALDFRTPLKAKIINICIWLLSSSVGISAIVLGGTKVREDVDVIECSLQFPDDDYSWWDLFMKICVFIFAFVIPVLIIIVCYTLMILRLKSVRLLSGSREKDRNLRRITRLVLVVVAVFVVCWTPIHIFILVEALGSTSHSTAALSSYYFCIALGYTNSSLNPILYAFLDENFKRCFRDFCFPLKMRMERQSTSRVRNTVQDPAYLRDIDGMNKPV
T1 sequence (P33535 whole entry): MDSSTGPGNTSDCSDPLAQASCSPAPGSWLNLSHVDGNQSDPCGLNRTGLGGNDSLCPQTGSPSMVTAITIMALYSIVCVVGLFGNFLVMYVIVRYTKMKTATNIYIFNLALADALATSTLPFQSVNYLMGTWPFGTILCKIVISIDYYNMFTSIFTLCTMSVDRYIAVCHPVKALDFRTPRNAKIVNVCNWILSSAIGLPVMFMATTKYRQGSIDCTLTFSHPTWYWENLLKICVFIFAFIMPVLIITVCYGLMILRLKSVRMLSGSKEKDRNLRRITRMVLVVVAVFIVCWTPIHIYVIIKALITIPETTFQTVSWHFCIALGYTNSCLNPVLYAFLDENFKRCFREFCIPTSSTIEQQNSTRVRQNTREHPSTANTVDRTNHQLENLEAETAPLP
Sequence of Kappa-type opioid receptor (Cavia porcellus) (P41144 whole entry): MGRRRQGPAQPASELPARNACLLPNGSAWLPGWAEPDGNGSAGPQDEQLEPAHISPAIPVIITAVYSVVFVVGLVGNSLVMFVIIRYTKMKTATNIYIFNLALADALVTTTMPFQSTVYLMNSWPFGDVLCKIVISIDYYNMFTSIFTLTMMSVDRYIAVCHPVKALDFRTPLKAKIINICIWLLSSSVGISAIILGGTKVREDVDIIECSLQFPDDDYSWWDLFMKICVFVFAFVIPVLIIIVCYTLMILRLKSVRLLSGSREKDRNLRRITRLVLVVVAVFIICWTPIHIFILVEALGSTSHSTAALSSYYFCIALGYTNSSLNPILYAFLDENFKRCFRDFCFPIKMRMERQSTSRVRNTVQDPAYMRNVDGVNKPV
Sequence of Kappa-type opioid receptor (Cavia porcellus, UniProt P41144) (P41144 whole entry): as above
Sequence of Delta-type opioid receptor (Homo sapiens, UniProt P41143) (P41143 whole entry): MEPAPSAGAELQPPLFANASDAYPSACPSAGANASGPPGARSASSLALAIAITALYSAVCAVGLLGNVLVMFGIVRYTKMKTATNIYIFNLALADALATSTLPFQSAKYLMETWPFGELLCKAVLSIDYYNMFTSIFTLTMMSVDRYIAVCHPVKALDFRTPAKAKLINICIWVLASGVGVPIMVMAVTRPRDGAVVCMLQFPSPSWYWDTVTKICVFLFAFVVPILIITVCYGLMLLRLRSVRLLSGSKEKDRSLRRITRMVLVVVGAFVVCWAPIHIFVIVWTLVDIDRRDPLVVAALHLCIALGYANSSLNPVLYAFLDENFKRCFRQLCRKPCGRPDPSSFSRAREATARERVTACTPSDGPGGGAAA
Sequence of G_PROTEIN_RECEP_F1_2 domain-containing protein (A0A286XTF2 whole entry): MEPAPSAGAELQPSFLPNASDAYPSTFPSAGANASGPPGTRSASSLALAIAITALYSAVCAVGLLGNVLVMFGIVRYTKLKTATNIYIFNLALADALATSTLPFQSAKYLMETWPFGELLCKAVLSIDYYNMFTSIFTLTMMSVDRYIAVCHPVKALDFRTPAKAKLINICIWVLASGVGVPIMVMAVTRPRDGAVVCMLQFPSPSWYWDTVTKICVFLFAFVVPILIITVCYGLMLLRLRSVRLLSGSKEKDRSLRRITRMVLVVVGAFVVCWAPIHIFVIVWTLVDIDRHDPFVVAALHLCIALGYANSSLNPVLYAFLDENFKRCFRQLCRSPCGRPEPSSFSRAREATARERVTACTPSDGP
Sequence of Delta-type opioid receptor (Rattus norvegicus, UniProt P33533) (P33533 whole entry): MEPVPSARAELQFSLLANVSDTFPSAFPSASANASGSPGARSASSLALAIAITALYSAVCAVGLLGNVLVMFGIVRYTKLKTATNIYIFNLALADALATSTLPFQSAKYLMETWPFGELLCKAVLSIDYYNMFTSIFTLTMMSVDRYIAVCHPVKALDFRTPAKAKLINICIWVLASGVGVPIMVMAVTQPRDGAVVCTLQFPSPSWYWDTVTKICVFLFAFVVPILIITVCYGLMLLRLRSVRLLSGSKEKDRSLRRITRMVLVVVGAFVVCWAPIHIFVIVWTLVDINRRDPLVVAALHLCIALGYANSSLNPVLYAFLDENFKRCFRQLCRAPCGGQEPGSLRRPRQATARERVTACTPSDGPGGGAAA
Sequence of Mu-type opioid receptor (Homo sapiens, UniProt P35372) (P35372 whole entry): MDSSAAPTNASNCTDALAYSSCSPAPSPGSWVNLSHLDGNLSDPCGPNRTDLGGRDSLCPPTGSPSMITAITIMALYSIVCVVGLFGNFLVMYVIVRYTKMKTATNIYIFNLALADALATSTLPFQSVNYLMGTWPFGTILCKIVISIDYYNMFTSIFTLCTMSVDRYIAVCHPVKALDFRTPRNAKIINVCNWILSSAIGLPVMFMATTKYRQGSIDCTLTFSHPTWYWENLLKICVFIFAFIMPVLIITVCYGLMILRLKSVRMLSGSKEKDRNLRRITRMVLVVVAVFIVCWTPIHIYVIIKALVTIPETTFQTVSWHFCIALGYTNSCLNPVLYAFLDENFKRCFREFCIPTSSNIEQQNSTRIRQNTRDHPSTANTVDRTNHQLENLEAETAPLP

Regarding `CC(C)CNCc1ccc(-c2ccccc2S(=O)(=O)N2CCCC2)cc1`, the inhibition in [1] turned out to be 82%.
In the case of `C[C@H]1CN(CCOC(=O)[C@H]2Cc3ccc(O)cc3CN2)CC[C@@]1(C)c1cccc(O)c1`, the Ki worked out at 97.7 nM on Mu-type opioid receptor [2] and 135 nM in assay [3]. Moreover, in assay [4], the Ratio Ki stood at 0.72.
For the molecule `C[C@H]1CN(CCCOC(=O)[C@H]2Cc3ccc(O)cc3CN2)CC[C@@]1(C)c1cccc(O)c1`, the figures for the Ki (at Mu-type opioid receptor [2]; in assay [3]) were 93 nM and 174 nM, respectively. Further, the Ratio Ki in assay [4] was 0.54.
With `CCCCC(=N)NCCc1ccc2c(c1)C1C[C@@]3(O)[C@H]4Cc5ccc(O)c6c5[C@@]3(CCN4CC3CC3)[C@@H](O6)C1N2` (some centres not stated), the inhibition constant Ki in assay [5] was 0.17 nM; on Mu-type opioid receptor [6], 5.33 nM; in [7] it was 3.31 nM.
With `CC(=O)N1Cc2cc(O)ccc2C[C@@H]1C(=O)N[C@H](CN1CC[C@@](C)(c2cccc(O)c2)[C@@H](C)C1)C(C)C`, the affinity in [8] corresponds to a Ki of 164 nM. Moreover, the Ratio Ki in assay [9] is 5; in assay [10], above 34.
On to `CC(C)[C@@H](CN1CC[C@@](C)(c2cccc(O)c2)[C@@H](C)C1)NC(=O)[C@H]1Cc2ccc(O)cc2CN1C(=O)CN(C)C`, for which the figures for the Ratio Ki in [9] and in assay [10] were 11 and above 219, respectively.
As for `CC(C)[C@@H](CN1CC[C@@](C)(c2cccc(O)c2)[C@@H](C)C1)NC(=O)[C@H]1Cc2ccc(O)cc2CN1` [JDTIC], the values for the Ki (at Mu-type opioid receptor [11]; in assay [12]) were 2.16 nM and above 300 nM, respectively.
The molecule `O=C1N[C@@H](Cc2ccccc2)C(=O)N2CCC[C@@H]2C(=O)N[C@@H](Cc2ccccc2)C(=O)N[C@H]1Cc1c[nH]c2ccccc12` (HELM PEPTIDE1{F.W.F.[dP]}$PEPTIDE1,PEPTIDE1,1:R1-4:R2$$$V2.0) displayed an IC50 in assay [13] of 2600 nM. Further, the ED50 in the assay listed under Oryctolagus cuniculus is 1300 nM.
Consider `CCOC(=O)C(CN1CC[C@@](C)(c2cccc(O)c2)[C@@H](C)C1)OC(=O)[C@H]1Cc2ccc(O)cc2CN1` (some centres not stated), for which affinity in [3] was put at a Ki of 2.39 nM.
In assay [14], `N=C(N)NCCC[C@@H]1NC(=O)[C@H](CCCNC(=N)N)NC(=O)[C@H](NC(=O)[C@H](Cc2ccccc2)NC(=O)CNC(=O)CNC(=O)[C@H](Cc2ccc(O)cc2)NCc2ccccc2)CC(=O)NC[C@@H](C(=O)N[C@@H](CCCNC(=N)N)C(=O)N2CCC[C@H]2C(=O)N[C@@H](CCCCN)C(N)=O)NC1=O` yielded a Ki of 30 nM.
With `Cc1cc(C)cc([C@@H]2CCCN2Cc2ccc(Oc3ccc(C(N)=O)cc3F)cc2)c1` [ATICAPRANT], the ED50 with Rattus norvegicus came out at 0.4 mg/kg.
Take `CC(C)[C@@H](CN1CC[C@@](C)(c2cccc(O)c2)[C@@H](C)C1)NC(=O)[C@H]1Cc2ccc(O)cc2CN1C`: the values for the Ratio Ki in assay [9] and in assay [10] were 700 and 11600, respectively.
In turn, `CC(=O)N[C@@H](Cc1ccccc1)C(=O)N[C@@H](Cc1ccccc1)C(=O)N[C@@H](Cc1ccccc1)C(=O)N[C@@H](CCCNC(=N)N)C(=O)N[C@@H](CC(C)C)C(=O)N[C@@H](CCCNC(=N)N)C(=O)N[C@@H](CCCNC(=N)N)C(=O)N[C@H](C)C(=O)N[C@@H](CCCNC(=N)N)C(=O)N1CCC[C@H]1C(=O)N[C@@H](CCCCN)C(N)=O` (HELM PEPTIDE1{[ac].F.F.F.R.L.R.R.[dA].R.P.K.[am]}$$$$V2.0) yielded a Ki in [14] of 10 nM. For the same molecule, the figures for the Ratio Ki in the assay listed under Homo sapiens [15] and in the assay listed under Homo sapiens [16] were 174 and 583, respectively.
